Structures can show the parent of a compound that is named as a salt.
Columns and labels:
[1] = molecular target: Recombinant GST-Tie2 (Homo sapiens, UniProt Q02763); experiment: Tie2 fluorescence polarization kinase activity assay (TIE2-FP); format: biochemical; conditions: activated Tie2, 200 μM ATP, peptide substrate
Procedure: Tie2 Fluorescence Polarization Kinase Activity Assay: (TIE2-FP)
Activation of Recombinant Tie2 Activation:
Recombinant GST-Tie2 was activated by incubating the enzyme in 20 mM Tris-HCl, pH 7.5, 12 mM MgCl2, 100 mM NaCl, 20 μM sodium vanidate, 1 mM DTT and 300 μM ATP at room temperature for 2 hours. The activation mixture was then passed through a NAP-25 desalting column (Pharmacia Biotech cat. no. 17-0852-02) to remove the free ATP. The activated enzyme was stored as aliquots at −80° C. in 20 mM Tris-HCl, pH 7.5 and 100 mM NaCl.
The final assay conditions were 50 mM HEPES, pH 7.5, 5% DMSO (when screening compounds), 200 μM ATP, 5 mM MgCl2, 1 mM DTT, 50 μM sodium vanidate, 1 nM activated enzyme, and 200 μM peptide. IC50's of compounds were measured under subsaturating ATP (200 μM) and varing concentrations of activated Tie2 and peptide substrate (RFWKYEFWR-OH; MW 1873 Da, TFA salt). Panvera Anti-phosphotyrosine antibody (Cat#P2840) and PTK Green Tracer (Cat#P2842) were used to detect the phosphorylated peptide. Polarization was measured on a TECAN Polarion in 138-second cycles for 30 minutes at room temperature. IC50's were then determined from the % polarization using normal calculation methods.

[2] = molecular target: T1, GST-VEGFR2 (Homo sapiens, UniProt P35968); experiment: VEGF-R2 enzyme assay (VEGF-E), LANCE method; format: biochemical; conditions: GST-VEGFR2, 75 uM ATP, biotinylated peptide
T1 construct: baculovirus expressed recombinant constructs of the intracellular domains of human TIE2 tagged by GST; made in house
From the text: VEGF-R2 Enzyme Assay (VEGF-E)
The VEGF enzyme assay used the LANCE method (Wallac) and GST-VEGFR2, baculovirus expressed recombinant constructs of the intracellular domains of human TIE2 tagged by GST. The method measured the ability of the purified enzymes to catalyse the transfer of the γ-phosphate from ATP onto tyrosine residues in a biotinylated synthetic peptide, (biotin-aminohexyl-EEEEYFELVAKKKK-NH2). This peptide phosphorylation was detected using the following procedure: GST-VEGFR2 was incubated for 40-60 mins at room temperature with 75 uM ATP, 5 mM MgCl2, 0.1 mM DTT, 0.1 mg/mL BSA and the test compound (diluted from a 10 mM stock in DMSO for desired concentration) in 100 mM HEPES buffer. The reaction was stopped by the addition of EDTA (final concentration 50 mM). Streptavidin linked-APC (allophycocyanin, Molecular Probe) and Europium-labeled anti-phosphorylated tyrosine antibody (Wallac) were then added at the final concentration of 15 nM and 1 nM, respectively. The APC signal was measured using an ARVO multilabel counter (Wallac Berthold, Japan). The percent inhibition of activity was calculated relative to blank control wells. The concentration of test compound that inhibits 50% of activity (IC50) was interpolated using nonlinear regression (Levernberg-Marquardt) and the equation, y=Vmax (1−x/(K+x))+Y2, where “K” was equal to the IC50. The IC50 values were converted to pIC50 values, i.e., −log IC50 in Molar concentration.

Chain of Recombinant GST-Tie2 (Q02763 23-1124): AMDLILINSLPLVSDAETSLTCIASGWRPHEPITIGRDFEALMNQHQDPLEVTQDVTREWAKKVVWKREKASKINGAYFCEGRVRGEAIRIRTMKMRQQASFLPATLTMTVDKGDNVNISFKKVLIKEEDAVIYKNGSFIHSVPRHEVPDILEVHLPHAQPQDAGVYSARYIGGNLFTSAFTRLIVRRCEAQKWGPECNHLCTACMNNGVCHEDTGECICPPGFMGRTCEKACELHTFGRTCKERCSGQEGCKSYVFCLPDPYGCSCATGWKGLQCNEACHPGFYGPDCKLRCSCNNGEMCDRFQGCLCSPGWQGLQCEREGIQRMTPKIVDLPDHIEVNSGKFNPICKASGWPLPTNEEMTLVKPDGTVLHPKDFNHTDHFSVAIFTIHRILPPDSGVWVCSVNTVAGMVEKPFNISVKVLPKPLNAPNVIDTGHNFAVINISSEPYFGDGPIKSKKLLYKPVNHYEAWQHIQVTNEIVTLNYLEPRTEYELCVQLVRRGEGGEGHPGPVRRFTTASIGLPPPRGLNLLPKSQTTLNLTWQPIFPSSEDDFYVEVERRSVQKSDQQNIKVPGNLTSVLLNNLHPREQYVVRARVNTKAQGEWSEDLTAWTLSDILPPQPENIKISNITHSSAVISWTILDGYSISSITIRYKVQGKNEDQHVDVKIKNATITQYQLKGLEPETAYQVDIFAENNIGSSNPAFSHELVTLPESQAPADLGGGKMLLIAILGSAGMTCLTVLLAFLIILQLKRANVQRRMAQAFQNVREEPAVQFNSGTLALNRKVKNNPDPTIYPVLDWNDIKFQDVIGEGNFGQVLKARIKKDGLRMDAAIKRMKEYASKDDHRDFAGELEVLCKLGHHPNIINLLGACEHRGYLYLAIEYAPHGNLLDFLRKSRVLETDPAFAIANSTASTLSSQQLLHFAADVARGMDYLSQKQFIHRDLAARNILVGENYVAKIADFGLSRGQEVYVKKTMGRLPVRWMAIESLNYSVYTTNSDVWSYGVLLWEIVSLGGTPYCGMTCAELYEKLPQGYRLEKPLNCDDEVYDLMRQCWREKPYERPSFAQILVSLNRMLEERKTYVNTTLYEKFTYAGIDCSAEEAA
T1 sequence (P35968 786-1356 limits assumed): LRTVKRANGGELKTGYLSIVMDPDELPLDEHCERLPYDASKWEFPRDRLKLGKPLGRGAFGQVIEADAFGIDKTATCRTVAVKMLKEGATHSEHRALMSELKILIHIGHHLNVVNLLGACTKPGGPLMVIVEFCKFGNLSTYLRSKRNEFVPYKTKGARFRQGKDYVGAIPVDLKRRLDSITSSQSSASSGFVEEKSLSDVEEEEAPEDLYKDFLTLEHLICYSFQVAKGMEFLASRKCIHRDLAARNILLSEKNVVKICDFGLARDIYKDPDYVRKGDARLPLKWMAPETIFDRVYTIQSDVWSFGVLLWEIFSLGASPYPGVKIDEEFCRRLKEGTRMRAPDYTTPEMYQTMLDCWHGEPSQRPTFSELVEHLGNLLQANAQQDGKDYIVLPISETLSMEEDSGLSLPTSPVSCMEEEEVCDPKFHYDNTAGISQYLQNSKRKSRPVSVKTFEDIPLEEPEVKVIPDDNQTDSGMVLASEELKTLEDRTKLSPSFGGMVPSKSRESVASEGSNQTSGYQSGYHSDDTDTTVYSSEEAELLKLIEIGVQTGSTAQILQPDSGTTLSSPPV

Row | IC50 [1] | IC50 [2] | VEGF-E [2] | TIE2-FP [1] | Compound
1 | 1000 to 10000 nM | < 100 nM |  |  | Cn1c(Nc2cc(C(C)(C)C)on2)nc2cc(Nc3ccnc(Nc4cccc(CS(C)(=O)=O)c4)n3)ccc21 [Example 136, N^2-(5-tert-Butyl-isoxazol-3-yl)-N^5-[2-(3-methanesulfonylmethyl-phenylamino)-pyrimidin-4-yl]-1-methyl-1H-benzoimidazole-2,5-diamine]
2 | 100 to 1000 nM | < 100 nM |  |  | CN(c1ccc2c(c1)nc(Nc1ccccc1F)n2C)c1ccnc(Nc2ccc(CS(C)(=O)=O)cc2)n1 [Example 124]
3 | 1000 to 10000 nM | < 100 nM |  |  | CN(c1ccc2c(c1)nc(NC(=O)Cc1cccc(F)c1F)n2C)c1ccnc(Nc2ccc(CS(C)(=O)=O)cc2)n1 [Example 226, (2,3-Difluorophenyl)-N-({[2-(4-methanesulfonylmethyl-phenylamino)-pyrimidin-4-yl]-methyl-amino}-methyl-1H-benzoimidazol-2-yl)-acetamide]
4 | 1000 to 10000 nM | < 100 nM |  |  | CN(c1ccc2c(c1)nc(NC(=O)Cc1ccc(F)cc1)n2C)c1ccnc(Nc2ccc(CS(C)(=O)=O)cc2)n1 [Example 206, 2-(4-Fluoro-phenyl)-N-({[2-(4-methanesulfonylmethyl-phenylamino)-pyrimidin-4-yl]-methyl-amino}-methyl-1H-benzoimidazol-2-yl)-acetamide]
5 |  | < 100 nM |  |  | CN(c1ccc2c(c1)nc(NC(=O)Cc1ccccc1)n2C)c1ccnc(Nc2ccc(CS(C)(=O)=O)cc2)n1 [Example 202, Phenyl-N-({[2-(4-methanesulfonylmethyl-phenylamino)-pyrimidin-4-yl]-methyl-amino}-methyl-1H-benzoimidazol-2-yl)-acetamide]
6 | 100 to 1000 nM | < 100 nM |  |  | CN(c1ccc2c(c1)nc(Nc1cccc(F)c1)n2C)c1ccnc(Nc2ccc(CS(C)(=O)=O)cc2)n1 [Example 118]
7 | < 100 nM | < 100 nM |  |  | CN(c1ccc2c(c1)nc(NC(=O)C1(c3ccccc3)CC1)n2C)c1ccnc(Nc2ccc(CS(C)(=O)=O)cc2)n1 [Example 203, Phenylcyclopropanecarboxylic acid ({[2-(4-methanesulfonylmethyl-phenylamino)-pyrimidin-4-yl]-methyl-amino}-methyl-1H-benzoimidazol-2-yl)-amide]
8 | 1000 to 10000 nM | < 100 nM |  |  | CN(c1ccc2c(c1)nc(NC(=O)Cc1cccs1)n2C)c1ccnc(Nc2ccc(CS(C)(=O)=O)cc2)n1 [Example 153]
9 |  |  | ++ (++ = pIC50 of 6.0-7.0) |  | N-({[2-(3-methanesulfonylmethyl-phenylamino)-pyrimidin-4-yl]-methyl-amino}-methyl-1H-benzoimidazol-2-yl)-3,5-bis-trifluoromethyl-benzamide [Example 156]
10 | < 100 nM | < 100 nM |  |  | CN(c1ccc2c(c1)nc(Nc1cc(C(F)(F)F)ccc1F)n2C)c1ccnc(Nc2ccc(CS(C)(=O)=O)cc2)n1 [Example 125]
11 | 1000 to 10000 nM | 100 to 1000 nM |  |  | CN(c1ccc2c(c1)nc(NC(=O)C1(c3cc(F)ccc3F)CC1)n2C)c1ccnc(Nc2ccc(CS(C)(=O)=O)cc2)n1 [Example 204, 1-(2,5-Difluoro-phenyl)-cyclopropanecarboxylic acid ({[2-(4-methanesulfonylmethyl-phenylamino)-pyrimidin-4-yl]-methyl-amino}-methyl-1H-benzoimidazol-2-yl)-amide]
12 | 1000 to 10000 nM | < 100 nM |  |  | CN(c1ccc2c(c1)nc(NC(=O)Cc1ccccc1Cl)n2C)c1ccnc(Nc2ccc(CS(C)(=O)=O)cc2)n1 [Example 230, 2-(2-Chlorophenyl)-N-({[2-(4-methanesulfonylmethyl-phenylamino)-pyrimidin-4-yl]-methyl-amino}-methyl-1H-benzoimidazol-2-yl)-acetamide]
13 |  |  | ++ (++ = pIC50 of 6.0-7.0) | + (+ = pIC50 of 5.0-6.0) | (3,5-Bis-trifluoromethyl-phenyl)-N-({[2-(3-methanesulfonylmethyl-phenylamino]-pyrimidin-4-yl]-methyl-amino}-methyl-1H-benzoimidazol-2-yl)-acetamide [Example 161]
14 | 1000 to 10000 nM | < 100 nM |  |  | CN(c1ccc2c(c1)nc(NC(=O)Cc1cccc(SC(F)(F)F)c1)n2C)c1ccnc(Nc2cccc(CS(C)(=O)=O)c2)n1 [Example 162, N-(5-{[2-(3-Methanesulfonylmethyl-phenylamino)-pyrimidin-4-yl]-methyl-amino}-1-methyl-1H-benzoimidazol-2-yl)-2-(3-trifluoromethylsulfanyl-phenyl)-acetamide]
15 | 100 to 1000 nM | < 100 nM |  |  | Cc1ccc(Nc2nccc(N(C)c3ccc4c(c3)nc(NCCc3ccccc3)n4C)n2)cc1S(N)(=O)=O [Example 95, 2-Methyl-5-{4-[methyl-(1-methyl-2-phenethylamino-1H-benzoimidazol-5-yl)-amino]-pyrimidin-2-ylamino}-benzenesulfonamide hydrochloride]
16 | 1000 to 10000 nM | 100 to 1000 nM |  |  | CC(C)Nc1nc2cc(N(C)c3ccnc(Nc4cccc(OS(C)(=O)=O)c4)n3)ccc2n1C [Example 92, hydrochloride]
17 |  | 100 to 1000 nM |  |  | CN(c1ccc2c(c1)nc(NC(=O)Cc1ccc3c(c1)OCO3)n2C)c1ccnc(Nc2ccc(CS(C)(=O)=O)cc2)n1 [Example 239, Benzo[1,3]dioxol-5-yl-N-({[2-(4-methanesulfonylmethyl-phenylamino)-pyrimidin-4-yl]-methyl-amino}-methyl-1H-benzoimidazol-2-yl)-acetamide]
18 |  |  | +++ (+++ = pIC50 of >7.0) |  | CN(c1ccc2c(c1)nc(NC(=O)C1CCCCC1)n2C)c1ccnc(Nc2cccc(CS(C)(=O)=O)c2)n1 [Example 157, Cyclohexanecarboxylic acid ({[2-(3-methanesulfonylmethyl-phenylamino)-pyrimidin-4-yl]-methyl-amino}-methyl-1H-benzoimidazol-2-yl)-amide]
19 |  | < 100 nM |  |  | COc1cccc(CC(=O)Nc2nc3cc(N(C)c4ccnc(Nc5ccc(CS(C)(=O)=O)cc5)n4)ccc3n2C)c1OC [Example 219, 2-(2,3-Dimethoxyphenyl)-N-(5-{[2-(4-methanesulfonylmethyl-phenylamino)-pyrimidin-4-yl]-methyl-amino}-1-methyl-1H-benzoimidazol-2-yl)-acetamide]
20 |  | < 100 nM |  |  | CN(c1ccc2c(c1)nc(NCc1ccc(F)cc1)n2C)c1ccnc(Nc2cccc(S(N)(=O)=O)c2)n1 [Example 11, 3-(4-{[2-(4-Fluoro-benzylamino)-1-methyl-1H-benzoimidazol-5-yl]-methyl-amino}-pyrimidin-2-ylamino)-benzenesulfonamide hydrochloride]
21 |  | < 100 nM |  |  | CNS(=O)(=O)CCc1ccc(Nc2nccc(N(C)c3ccc4c(c3)nc(NC(C)C)n4C)n2)cc1 [Example 90, 2-(4-{4-[(2-Isopropylamino-1-methyl-1H-benzoimidazol-5-yl)-methyl-amino]-pyrimidin-2-ylamino}-phenyl)-ethanesulfonic acid methylamide hydrochloride]
22 |  | < 100 nM |  |  | CN(c1ccc2c(c1)nc(NC(=O)Nc1ccccc1)n2C)c1ccnc(Nc2ccc(CS(C)(=O)=O)cc2)n1 [Example 142, N-(1-methyl-5-{methyl[2-({4-[(methylsulfonyl)methyl]phenyl}amino)pyrimidin-4-yl]amino}-1H-benzimidazol-2-yl)-N′-phenylurea]
